Laboratory results: patent publication US9468661B2, “Pyrrolidine derivatives and their use as complement pathway modulators” (priority 2012, dated 2016)

Each compound was assayed against human factor D (Homo sapiens (Human), UniProt P00746) (assay: biochemical). Details: Factor D inhibition data using Method 1; recombinant human factor D 10 nM, substrate Z-Lys-thiobenzyl, fluorescence; read-out: IC50.
Type: biochemical
Protocol: Human Complement Factor D Assay: Method 1
Recombinant human factor D (expressed in E. coli and purified using standard methods) at 10 nM concentration is incubated with test compound at various concentrations for 1 hour at room temperature in 0.1 M Hepes buffer, pH 7.5, containing 1 mM MgCl2, 1 M NaCl and 0.05% CHAPS. A synthetic substrate Z-Lys-thiobenzyl and 2,4-dinitrobenzenesulfonyl-fluoresceine are added to final concentrations of 200 μM and 25 μM, respectively. The increase in fluorescence is recorded at excitation of 485 nm and emission at 535 nm in a microplate spectrofluorimeter. IC50 values are calculated from percentage of inhibition of complement factor D-activity as a function of test compound concentration.

human factor D, sequence (P00746 26-253): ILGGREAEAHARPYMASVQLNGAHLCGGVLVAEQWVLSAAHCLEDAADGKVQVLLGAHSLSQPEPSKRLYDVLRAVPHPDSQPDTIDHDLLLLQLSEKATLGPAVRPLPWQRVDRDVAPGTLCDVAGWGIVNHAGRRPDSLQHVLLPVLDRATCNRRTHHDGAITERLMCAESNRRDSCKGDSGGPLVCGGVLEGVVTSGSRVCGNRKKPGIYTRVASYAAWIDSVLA

SMILES	IC50 [nM]
CC(=O)c1nn(CC(=O)N2[C@@H]3C[C@@H]3C[C@H]2C(=O)N[C@H](C)[C@H]2CC2(Cl)Cl)c2cnccc12 [Example 47, (1R,3S,5R)-2-[2-(3-Acetyl-pyrazolo[3,4-c]pyridin-1-yl)-acetyl]-2-aza-bicyclo[3.1.0] hexane-3-carboxylic acid [(R)-1-((R)-2,2-dichloro-cyclopropyl)-ethyl]-amide]	35
CC(=O)c1nn(CC(=O)N2[C@@H]3C[C@@H]3C[C@H]2C(=O)NCC2CCCC(C(F)(F)F)C2)c2cnccc12 (stereo partly drawn) [Example 14, (1R,3S,5R)-2-[2-(3-Acetyl-pyrazolo[3,4-c]pyridin-1-yl)-acetyl]-2-aza-bicyclo[3.1.0] hexane-3-carboxylic acid (3-trifluoromethyl-cyclohexylmethyl)-amide]	334
CC(=O)c1nn(CC(=O)N2[C@@H]3C[C@@H]3C[C@H]2C(=O)NCC2CC(F)(F)C2)c2ccc(OCc3ncccn3)cc12 [Example 62, (1R,3S,5R)-2-{2-[3-Acetyl-5-(pyrimidin-2-ylmethoxy)-indazol-1-yl]-acetyl}-2-aza-bicyclo[3.1.0] hexane-3-carboxylic acid (3,3-difluoro-cyclobutylmethyl)-amide]	162
Cc1nccc2c(C(N)=O)nn(CC(=O)N3[C@@H]4C[C@@H]4C[C@H]3C(=O)N[C@H](C)[C@H]3CC3(Cl)Cl)c12 [Example 44, 1-(2-{(1R,3S,5R)-3-[(R)-1-((R)-2,2-Dichloro-cyclopropyl)-ethylcarbamoyl]-2-aza-bicyclo[3.1.0]hex-2-yl}-2-oxo-ethyl)-7-methyl-1H-pyrazolo[3,4-c]pyridine-3-carboxylic acid amide]	41
C[C@@H](NC(=O)[C@@H]1C[C@H]2C[C@H]2N1C(=O)Cn1nc(C(N)=O)c2ccccc21)[C@H]1CC1(Cl)Cl [Example 36, 1-(2-{(1R,3S,5R)-3-[(R)-1-((R)-2,2-Dichloro-cyclopropyl)-ethylcarbamoyl]-2-aza-bicyclo[3.1.0]hex-2-yl}-2-oxo-ethyl)-1H-indazole-3-carboxylic acid amide]	25
NC(=O)c1nn(CC(=O)N2[C@H](C(=O)NC[C@H]3CC3(Cl)Cl)C[C@@]3(CO)C[C@@H]23)c2ccccc12 [Example 52, 1-(2-{(1R,3S,5S)-3-[((R)-2,2-Dichloro-cyclopropylmethyl)-carbamoyl]-5-hydroxymethyl-2-aza-bicyclo[3.1.0]hex-2-yl}-2-oxo-ethyl)-1H-indazole-3-carboxylic acid amide]	56
CC1(C)[C@@H](CNC(=O)[C@@H]2C[C@H]3C[C@H]3N2C(=O)Cn2nc(C(N)=O)c3ccncc32)C1(Cl)Cl [Example 101, 1-(2-{(1R,3S,5R)-3-[((S)-2,2-Dichloro-3,3-dimethyl-cyclopropylmethyl)-carbamoyl]-2-aza-bicyclo[3.1.0]hex-2-yl}-2-oxo-ethyl)-1H-pyrazolo[3,4-c]pyridine-3-carboxylic acid amide]	297
NC(=O)n1cc(NC(=O)N2[C@@H]3C[C@@H]3C[C@H]2C(=O)NCC2CC=CCC2)c2ccccc21 (stereo partly drawn) [Example 26, (1R,3S,5R)-2-Aza-bicyclo[3.1.0]hexane-2,3-dicarboxylic acid 2-[(1-carbamoyl-1H-indol-3-yl)-amide] 3-[(cyclohex-3-enylmethyl)-amide]]	305
CC(=O)c1nn(CC(=O)N2[C@@H]3C[C@@H]3C[C@H]2C(=O)NC[C@H]2CC2(Cl)Cl)c2ccc(O)cc12 [Example 122, (1R,3S,5R)-2-[2-(3-Acetyl-5-hydroxy-indazol-1-yl)-acetyl]-2-aza-bicyclo[3.1.0]hexane-3-carboxylic acid ((R)-2,2-dichloro-cyclopropylmethyl)-amide]	58
CC(=O)c1nn(CC(=O)N2[C@@H]3C[C@@H]3C[C@H]2C(=O)NC[C@H]2CC2(Cl)Cl)c2ccc(OCc3ncccc3F)cc12 [Example 99, (1R,3S,5R)-2-{2-[3-Acetyl-5-(3-fluoro-pyridin-2-ylmethoxy)-indazol-1-yl]-acetyl}-2-aza-bicyclo[3.1.0]hexane-3-carboxylic acid ((R)-2,2-dichloro-cyclopropylmethyl)-amide]	32
Cc1nccc2c(C(N)=O)nn(CC(=O)N3[C@@H]4C[C@@H]4C[C@H]3C(=O)NC[C@H]3CC3(Cl)Cl)c12 [Example 112, 1-(2-{(1R,3S,5R)-3-[((R)-2,2-Dichloro-cyclopropylmethyl)-carbamoyl]-2-aza-bicyclo[3.1.0]hex-2-yl}-2-oxo-ethyl)-7-methyl-1H-pyrazolo[3,4-c]pyridine-3-carboxylic acid amide]	188
CC(=O)c1nn(CC(=O)N2[C@@H]3C[C@@H]3C[C@H]2C(=O)NCC2CCCC(C)C2)c2cnccc12 (single isomer, unassigned; dia 1) [Example 119]	188
Cc1cc2c(C(N)=O)nn(CC(=O)N3[C@@H]4C[C@@H]4C[C@H]3C(=O)N[C@H](C)[C@H]3CC3(Cl)Cl)c2cn1 [Example 38, 1-(2-{(1R,3S,5R)-3-[(R)-1-((R)-2,2-Dichloro-cyclopropyl)-ethylcarbamoyl]-2-aza-bicyclo[3.1.0]hex-2-yl}-2-oxo-ethyl)-5-methyl-1H-pyrazolo[3,4-c] pyridine-3-carboxylic acid amide]	40
CC(=O)c1nn(CC(=O)N2[C@@H]3C[C@@H]3C[C@H]2C(=O)N[C@@H](C)C2CCCCC2)c2cnccc12 [Example 5, (1R,3S,5R)-2-[2-(3-Acetyl-pyrazolo[3,4-c]pyridin-1-yl)-acetyl]-2-aza-bicyclo[3.1.0] hexane-3-carboxylic acid ((S)-1-cyclohexyl-ethyl)-amide]	5250
CC(=O)c1nn(CC(=O)N2[C@@H]3C[C@@H]3C[C@H]2C(=O)NCC2CC(C)C2)c2cnccc12 (stereo partly drawn) [Example 7, (1R,3S,5R)-2-[2-(3-Acetyl-pyrazolo[3,4-c]pyridin-1-yl)-acetyl]-2-aza-bicyclo[3.1.0] hexane-3-carboxylic acid (3-methyl-cyclobutylmethyl)-amide]	259
CC(=O)c1nn(CC(=O)N2[C@@H]3C[C@@H]3C[C@H]2C(=O)NC[C@@H]2CC2(Cl)Cl)c2ccc(OCc3ncccn3)cc12 [Example 93, (1R,3S,5R)-2-{2-[3-Acetyl-5-(pyrimidin-2-ylmethoxy)-indazol-1-yl]-acetyl}-2-aza-bicyclo[3.1.0] hexane-3-carboxylic acid ((S)-2,2-dichloro-cyclopropylmethyl)-amide]	19
CO[C@H]1[C@@H](C(=O)NC[C@H]2CC2(Cl)Cl)N(C(=O)Cn2nc(C(N)=O)c3ccc(Cl)cc32)C[C@@H]1F [Example 41, 6-Chloro-1-(2-{(2S,3S,4S)-2-[((R)-2,2-dichloro-cyclopropylmethyl)-carbamoyl]-4-fluoro-3-methoxy-pyrrolidin-1-yl}-2-oxo-ethyl)-1H-indazole-3-carboxylic acid amide]	51
CO[C@H]1[C@@H](C(=O)NC[C@H]2CC2(Cl)Cl)N(C(=O)Cn2nc(C(N)=O)c3ccc(C)cc32)C[C@@H]1F [Example 48, 1-(2-{(2S,3S,4S)-2-[((R)-2,2-Dichloro-cyclopropylmethyl)-carbamoyl]-4-fluoro-3-methoxy-pyrrolidin-1-yl}-2-oxo-ethyl)-6-methyl-1H-indazole-3-carboxylic acid amide]	27
Cc1ccc2c(C(N)=O)nn(CC(=O)N3[C@@H]4C[C@@H]4C[C@H]3C(=O)NC[C@H]3CC3(Cl)Cl)c2c1 [Example 113, 1-(2-{(1R,3S,5R)-3-[((R)-2,2-Dichloro-cyclopropylmethyl)-carbamoyl]-2-aza-bicyclo[3.1.0]hex-2-yl}-2-oxo-ethyl)-6-methyl-1H-indazole-3-carboxylic acid amide]	74

Same assay, conditions: IC50, Factor D inhibition data using Method 1; recombinant human factor D 10 nM, substrate Z-Lys-thiobenzyl, fluorescence

SMILES	IC50 [nM]
CC1CCC(CNC(=O)[C@@H]2C[C@H]3C[C@H]3N2C(=O)Cn2nc(C(N)=O)c3ccccc32)C1 (single isomer, unassigned; dia 2) [Example 90]	53
CC(=O)c1nn(CC(=O)N2[C@@H]3C[C@@H]3C[C@H]2C(=O)NCC2C(C)C2(Cl)Cl)c2ccc(OCc3ncccn3)cc12 (single isomer, unassigned; dia 1) [Example 108, (1R,3S,5R)-2-{2-[3-Acetyl-5-(pyrimidin-2-ylmethoxy)-indazol-1-yl]-acetyl}-2-aza-bicyclo[3.1.0] hexane-3-carboxylic acid ((1R,3S) or (1S,3R)-2,2-dichloro-3-methyl-cyclopropylmethyl)-amide-Dia 1]	27
CC(=O)c1nn(CC(=O)N2[C@@H]3C[C@@H]3C[C@H]2C(=O)NC(C)C2CC2(Cl)Cl)c2ccc(OCc3ncccn3)cc12 (single isomer, unassigned; dia 3) [Example 34]	513
NC(=O)c1nn(CC(=O)N2[C@@H]3C[C@@H]3C[C@H]2C(=O)NC(CO)C2CC2(Cl)Cl)c2ccccc12 (single isomer, unassigned; dia 1) [Example 23]	1610
CC1C(CNC(=O)[C@@H]2C[C@H]3C[C@H]3N2C(=O)Cn2nc(C(N)=O)c3ccccc32)C1(Cl)Cl (single isomer, unassigned; dia 2) [Example 74, 1-(2-{(1R,3S,5R)-3-[((1R,3R) or (1S,3S)-2,2-Dichloro-3-methyl-cyclopropylmethyl)-carbamoyl]-2-aza-bicyclo[3.1.0]hex-2-yl}-2-oxo-ethyl)-1H-indazole-3-carboxylic acid amide-Dia 2]	12
CC1CCC(CNC(=O)[C@@H]2C[C@H]3C[C@H]3N2C(=O)Cn2nc(C(N)=O)c3ccccc32)C1 (single isomer, unassigned; dia 4) [Example 91]	46
CC(=O)c1nn(CC(=O)N2[C@@H]3C[C@@H]3C[C@H]2C(=O)NC(C)C2CC2(Cl)Cl)c2ccc(OCc3ncccn3)cc12 (single isomer, unassigned; dia 2) [Example 33]	300
